Experimental data reported in the CheMixHub viscosity set.
± gives the uncertainty stated by the source.

Assay: xn = mol fraction of the nth substance listed

COCCOCCOC + c1ccc2c(c1)CCCC2
viscosity [mPa·s], 101.33 kPa
Details	x1 = 0.1028	x1 = 0.1977	x1 = 0.3019	x1 = 0.3993	x1 = 0.5009	x1 = 0.666	x1 = 0.7016	x1 = 0.7949	x1 = 0.8987
298.15 K	1.786 ± 0.011	1.637 ± 0.01	1.5 ± 0.01	1.396 ± 0.009	1.294 ± 0.008	1.197 ± 0.008	1.144 ± 0.008	1.087 ± 0.007	1.032 ± 0.007
303.15 K	1.619 ± 0.01	1.487 ± 0.009	1.367 ± 0.009	1.275 ± 0.008	1.185 ± 0.008	1.071 ± 0.007	1.05 ± 0.007	1 ± 0.007	0.95 ± 0.007
308.15 K	1.472 ± 0.009	1.355 ± 0.009	1.249 ± 0.008	1.17 ± 0.008	1.087 ± 0.007	0.984 ± 0.007	0.967 ± 0.007	0.922 ± 0.006	0.879 ± 0.006
313.15 K	1.348 ± 0.009	1.245 ± 0.008	1.15 ± 0.008	1.078 ± 0.007	1.004 ± 0.007	0.913 ± 0.006	0.897 ± 0.006	0.859 ± 0.006	0.815 ± 0.006

COCCOCCOC + COC(C)=O
viscosity [mPa·s], 101.33 kPa
Details	x1 = 0.1	x1 = 0.198	x1 = 0.2969	x1 = 0.4015	x1 = 0.4988	x1 = 0.5951	x1 = 0.6954	x1 = 0.7941	x1 = 0.8973
298.15 K	0.441 ± 0.007	0.498 ± 0.007	0.559 ± 0.008	0.621 ± 0.009	0.683 ± 0.01	0.741 ± 0.01	0.801 ± 0.011	0.861 ± 0.012	0.922 ± 0.013
303.15 K	0.418 ± 0.007	0.47 ± 0.007	0.526 ± 0.008	0.582 ± 0.009	0.639 ± 0.009	0.691 ± 0.01	0.746 ± 0.011	0.799 ± 0.011	0.855 ± 0.012
308.15 K	0.396 ± 0.006	0.445 ± 0.007	0.496 ± 0.007	0.548 ± 0.008	0.6 ± 0.009	0.646 ± 0.009	0.696 ± 0.01	0.745 ± 0.011	0.795 ± 0.011
313.15 K	0.376 ± 0.006	0.418 ± 0.007	0.469 ± 0.007	0.516 ± 0.008	0.564 ± 0.008	0.607 ± 0.009	0.652 ± 0.009	0.697 ± 0.01	0.741 ± 0.01

Oc1ccccc1 + O=C1CCCCC1
298.15 K, 101.3 kPa
Details	viscosity [mPa·s]
x2 = 0.79	2.24 ± 0.02
x2 = 0.9	2.02 ± 0.02

CCCCCCN + C1CCCCC1
303.15 K, 101 kPa
Details	viscosity [mPa·s]
x2 = 0.1064	0.7192 ± 0.008
x2 = 0.2992	0.7005 ± 0.0078
x2 = 0.4953	0.7021 ± 0.0078
x2 = 0.5974	0.7073 ± 0.0079
x2 = 0.6964	0.7145 ± 0.008
x2 = 0.7966	0.72 ± 0.008
x2 = 0.898	0.7541 ± 0.0084

OC(C(F)(F)F)C(F)(F)F + CC(C)=O
298.15 K, 101 kPa
Details	viscosity [mPa·s]
x2 = 0.2	1.35 ± 0.011
x2 = 0.4	0.964 ± 0.008
x2 = 0.5	0.838 ± 0.007
x2 = 0.6	0.658 ± 0.006
x2 = 0.8	0.45 ± 0.004
x2 = 0.9	0.369 ± 0.004
x2 = 0.95	0.336 ± 0.003

C=CC(C)O (stereo unspecified) + O
viscosity [mPa·s], 101.32 kPa
Details	x1 = 0.1003	x1 = 0.2	x1 = 0.3004	x1 = 0.4	x1 = 0.5013	x1 = 0.601	x1 = 0.7012	x1 = 0.8046	x1 = 0.9031
308.15 K	1.553 ± 0.024	1.858 ± 0.029	1.854 ± 0.029	1.765 ± 0.028	1.682 ± 0.027	1.566 ± 0.026	1.457 ± 0.025	1.387 ± 0.024	1.331 ± 0.024
313.15 K	1.347 ± 0.021	1.617 ± 0.025	1.612 ± 0.025	1.535 ± 0.025	1.461 ± 0.024	1.369 ± 0.023	1.28 ± 0.022	1.231 ± 0.022	1.171 ± 0.021
318.15 K	1.189 ± 0.019	1.405 ± 0.022	1.404 ± 0.023	1.345 ± 0.022	1.281 ± 0.021	1.209 ± 0.021	1.13 ± 0.02	1.08 ± 0.019	1.044 ± 0.019
323.15 K	1.049 ± 0.017	1.243 ± 0.02	1.24 ± 0.02	1.187 ± 0.02	1.138 ± 0.019	1.078 ± 0.019	1.007 ± 0.018	0.9691 ± 0.018	0.9323 ± 0.017

CCCCCCN + Cc1ccccc1
303.15 K, 101 kPa
Details	viscosity [mPa·s]
x2 = 0.1238	0.6558 ± 0.0056
x2 = 0.2561	0.6124 ± 0.0053
x2 = 0.3598	0.5834 ± 0.0051
x2 = 0.4481	0.5588 ± 0.0049
x2 = 0.5709	0.5327 ± 0.0047
x2 = 0.6774	0.5177 ± 0.0045
x2 = 0.7639	0.5072 ± 0.0045
x2 = 0.8616	0.5035 ± 0.0044
x2 = 0.9319	0.5102 ± 0.0045

ClC(Cl)C(Cl)Cl + COC(C)=O
303.15 K, 101.3 kPa
Details	viscosity [mPa·s]
x2 = 0.103	1.379 ± 0.0097
x2 = 0.1999	1.268 ± 0.0091
x2 = 0.3012	1.147 ± 0.0083
x2 = 0.3998	1.029 ± 0.0077
x2 = 0.5031	0.8951 ± 0.007
x2 = 0.6017	0.764 ± 0.0063
x2 = 0.6999	0.6464 ± 0.0058
x2 = 0.8014	0.5324 ± 0.0054
x2 = 0.9019	0.4308 ± 0.005

CC=CC(=O)O + CCOC(C)=O
viscosity [mPa·s], 101 kPa
Details	x1 = 0.0495	x1 = 0.0995	x1 = 0.1509	x1 = 0.1971	x1 = 0.2463	x1 = 0.2605
298.15 K	0.4663 ± 0.013	0.5094 ± 0.014	0.5447 ± 0.015	0.5907 ± 0.016	0.6329 ± 0.017	0.6467 ± 0.017
303.15 K	0.4417 ± 0.012	0.4788 ± 0.013	0.5181 ± 0.014	0.5583 ± 0.015	0.5921 ± 0.016	0.6093 ± 0.016
313.15 K	0.4005 ± 0.011	0.4309 ± 0.011	0.4587 ± 0.012	0.494 ± 0.013	0.5254 ± 0.014	0.5496 ± 0.015
323.15 K	0.361 ± 0.0097	0.3895 ± 0.01	0.413 ± 0.011	0.4469 ± 0.012	0.4704 ± 0.013	0.4917 ± 0.013
